# According to PubChem BioAssay AID504470 (NMMLSC, 2011):
# The source made the active and inactive calls.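 Rule for the calls: active = EC50, the half-effect concentration on GFP expression, at most 33 µM; inactive = the rest.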
# Test system: S. cerevisiae RPL19A-GFP strain, flow cytometry fluorescence, 3 h
# Test: yeast RPL19A-GFP fluorescence modulation, SAR follow-up, cell-based, KU SAR set 2, kMESF flow cytometry, multiplex (AID 504470)
# Details: not given
row,Structure (SMILES),EC50
1,CNc1nc(N)cc(Nc2cccc(Cl)c2)n1,69.1 µM (inactive)
2,CCNc1nc(NC2CCCCC2)c([N+](=O)[O-])c(N2CCOCC2)n1,70.5 µM (inactive)
3,CNc1nc(N)c(C(=O)c2ccc(C)c(C)c2)c(Nc2cccc(Cl)c2)n1,125 µM (inactive)

# Test system: not listed separately
# Test: as above
# Details: S. cerevisiae RPL19A-GFP strain, flow cytometry fluorescence, 3 h; at 100 µM (top of the series)
row,Structure (SMILES),GFP fluorescence (kMESF)
1,CNc1nc(N)c([N+](=O)[O-])c(Nc2ccccc2F)n1,24.8% (inactive)
2,CNc1nc(N)c([N+](=O)[O-])c(Nc2cccc(OC)c2)n1,22.9% (inactive)
3,CNc1nc(N)c([N+](=O)[O-])c(Nc2ccccc2Br)n1,23.4% (inactive)
4,CNc1nc(N)c([N+](=O)[O-])c(Nc2cccc(Oc3ccccc3)c2)n1,23% (inactive)
5,CNc1nc(NC)c([N+](=O)[O-])c(Nc2cccc(Cl)c2)n1,23.3% (inactive)
6,CNc1nc(N)c([N+](=O)[O-])c(Nc2cccc(Br)c2)n1,24% (inactive)
7,CCNc1nc(N)c([N+](=O)[O-])c(Nc2cccc(Cl)c2)n1,18.9% (inactive)
8,CNc1nc(NC2CCCCC2)c([N+](=O)[O-])c(N2CCOCC2)n1,21.9% (inactive)

# Same assay, conditions: S. cerevisiae RPL19A-GFP strain, flow cytometry fluorescence, 3 h; at 300 µM (top of the series)
row,Structure (SMILES),GFP fluorescence (kMESF)
1,COC(=O)c1cccc(-c2cc(Nc3cc(C)[nH]n3)nc(NCc3ccccc3)n2)c1,32.9% (inactive)
2,CCOC(=O)c1c(N)nc(NC)nc1Nc1cccc(F)c1,29.8% (inactive)
3,CNc1nc(N)cc(Oc2cccc(Cl)c2)n1,32.2% (inactive)
4,O=[N+]([O-])c1c(NC2CCCCC2)nc(NCc2ccccc2)nc1N1CCOCC1,29.5% (inactive)
5,COc1cccc(-c2cc(Nc3cc(C)[nH]n3)nc(NCc3ccccc3)n2)c1,32.4% (inactive)
6,Cc1cc(Nc2cc(-c3ccccc3)nc(NCc3ccccc3)n2)n[nH]1,31.4% (inactive)
7,COc1ccccc1-c1cc(Nc2cc(C)[nH]n2)nc(NCc2ccccc2)n1,30% (inactive)
8,CNc1nc(N)cc(Nc2ccccc2F)n1,32% (inactive)
9,Cc1cc(Nc2cc(Nc3ccccc3)nc(NCc3ccccc3)n2)n[nH]1,30% (inactive)
